How the values were obtained:
[1] = molecular target: DENV-2 NS5 / IMPα/β (Dengue virus type 2, UniProt P14340); assay: AlphaScreen binding of His6-NS5 to IMPα/β heterodimer
Experimental: AlphaScreen®, a luminescent bead-based assay that measures direct protein-protein interactions, was used to examine the binding of 3 nM His6-NS5 to 10 nM IMPα/β (IMPα/β heterodimer containing biotinylated IMPβ1) in the presence of increasing concentrations of 4-HPR, 4-MPR or ATRA (FIG. 1A), or 4-oxo-4-HPR, 4-HPR or 4-MPR (FIG. 1B). Data are the mean±standard deviation (SD) of triplicate wells from a single typical experiment.
(§1) To investigate the specificity of 4-HPR inhibition of NS5-importin association, the binding of 30 nM His6-NS5 to 10 nM IMPα/β, (IMPα/β heterodimer containing biotinylated IMPβ1), 3 nM IMPαΔIBB (biotinylated IMPa with the IMPβ-binding domain removed), or 3 nM biotinylated IMPβ1, in the presence of increasing concentrations of 4-HPR, was investigated.

[2] = molecular target: DENV-2 NS5 / IMPαΔIBB (Dengue virus type 2, UniProt P14340); assay: AlphaScreen binding of His6-NS5 to IMPαΔIBB
Experimental: as §1

[3] = molecular target: DENV-2 NS5 / IMPβ1 (Dengue virus type 2, UniProt P14340); assay: AlphaScreen binding of His6-NS5 to biotinylated IMPβ1; conditions: 30 nM His6-NS5, 3 nM biotinylated IMPβ1, increasing concentrations of 4-HPR
Experimental: as §1

[4] = tested on: Vero cells; assay: XTT cell viability assay in Vero cells; type: cell-based; conditions: 24 h, up to 25 μM
Experimental: To determine the effect of 4-HPR on cell viability, and to ensure that the reduced viral titres were not due to compound toxicity, XTT reagent was used to measure mitochondrial activity of drug treated cells. Briefly, Vero cells were incubated with 0, 1, 10 or 25 μM 4-HPR for 24 h. XTT reagent was added directly to cells and incubated for 6 h at 37° C. prior to spectrophotometric analysis. Data shown are the mean+SD of a single experiment performed in triplicate wells.

[5] = tested on: DENV-1; assay: Cell-based flavivirus immunodetection assay in BHK-21 cells, DENV-1; conditions: MOI of 0.3, 48 h p.i.
Experimental: (§2) To investigate this, BHK-21 cells were infected with DENV serotypes 1, 2, 3 or 4 (MOI of 0.3) for 1 h in the presence of 4-HPR or 4-MPR (concentrations as indicated in FIG. 6A). Virus inoculum was removed and fresh media containing the indicated compounds was added. Virus infection rates were determined 48 h p.i. using a cell-based flavivirus immunodetection assay. Briefly, cells were fixed and stained for DENV structural protein, E, followed by addition of Alexa Fluor 488 anti-mouse IgG. Viral antigen quantification was performed using Imagexpress. Data shown are representative of a single experiment

[6] = tested on: DENV-3; assay: Cell-based flavivirus immunodetection assay in BHK-21 cells, DENV-3; conditions: MOI of 0.3, 48 h p.i.
Experimental: as §2

[7] = tested on: DENV-4; assay: Cell-based flavivirus immunodetection assay in BHK-21 cells, DENV-4; conditions: Dengue virus, DENV4, BHK-21, 48 h, read-out: EC50, DENV-4 replication
Experimental: as §2

[8] = tested on: DENV-1; assay: Plaque assay in Huh-7 cells, DENV-1; type: cell-based; conditions: Dengue virus, DENV1, Huh-7, 48 h, read-out: EC50, infectious virus titre DENV 1
Experimental: (§3) To ensure the antiviral activity of 4-HPR is not cell-line specific Huh-7 cells were also infected with DENV-1, 2, 3 or 4 (MOI of 0.3) in the presence of increasing concentrations of 4-HPR, with infectious virus titres determined by plaque assay at 48 h p.i.

[9] = tested on: DENV-4; assay: Plaque assay in Huh-7 cells, DENV-4; type: cell-based; conditions: Dengue virus, DENV4, Huh-7, 48 h, read-out: EC50, infectious virus titre DENV 4
Experimental: as §3

[10] = tested on: DENV-1; assay: ADE-mediated DENV-1 infection of human PBMCs, plaque assay; type: cell-based; conditions: Dengue virus, DENV1, PBMC, MOI of 10, 48 h, read-out: ex vivo EC50, ADE-mediated DENV-1 infection
Experimental: The antiviral activity of 4-HPR was investigated in the more physiologically relevant human system of peripheral blood mononuclear cells (PBMCs), a major target of DENV infection in humans.
PBMCs were prepared from a healthy donor buffy coat using a Ficoll gradient, prior to ADE-mediated DENV-1 infection (MOI of 10) in the presence of increasing concentrations of 4-HPR or 4-MPR, and infectious virus titres determined by plaque assay 48 h later.

[11] = Cytotoxicity analysis in PBMCs; type: cell-based; conditions: human
[12] = tested on: DENV-2 strain (S221); assay: Lethal mouse infection model, AG129 mice infected with mouse adapted DENV-2 strain S221; type: in vivo; conditions: 20 mg/kg orally
Text: Mice have previously been used as an in vivo model for 4-HPR pharmacokinetics. To examine the effect of 4-HPR on DENV infection in vivo, a lethal mouse infection model, which uses a mouse adapted DENV-2 strain (S221), to infect Sv/129 mice deficient in type I and II interferon receptors (AG129) was used (Zellweger et al., 2010, Cell Host Microbe). Viral infection in this system is enhanced by intraperitoneal delivery of a sub-neutralizing concentration of 4G2 antibody 1 day prior to infection, resulting in peak viremia 3 days p.i. and death of infected mice by day 5. Here, mice were treated with 20 mg/kg of 4-HPR, administered orally at the time of infection, then once (QD) or twice (BID) daily for 5 consecutive days. Consistent with previous reports, infected, untreated mice all died by day 5 (FIG. 8B). Once daily treatment of mice with 4-HPR was sufficient to provide protection to 20% of mice, which recovered from the infectious challenge, whereas increasing the dose to 2 treatments daily, improved protection to 70% (7 of 10 mice recovered from the infectious challenge).
Data are the mean+SEM. Statistical analysis (Student's t test) was performed using Graph Pad Prism software (ns, not significant).

[13] = tested on: West Nile virus, Kunjin strain (WNVKUN); assay: West Nile virus (Kunjin strain) infection of Vero cells, plaque assay; type: cell-based; conditions: 10 μM, 4 h incubation of Vero cells at the time of infection
Experimental: FIG. 9C. Viral titre from a plaque assay conducted from Vero cells infected with West Nile virus (Kunjin strain; WNVKUN) after treatment with 10 μM 4-HPR for 4 h.

[14] = up to 4,000 mg/m^2/day, daily for 28 days, including in children; cited from earlier work

CC1=C(/C=C/C(C)=C/C=C/C(C)=C/C(=O)Nc2ccc(O)cc2)C(C)(C)CCC1 [4-HPR, N-(4-hydroxyphenyl) retinamide]
IC50 [1]: 1200 nM
block of association of DENV-2 NS5 with IMPα/β ([1]; 3 nM His6-NS5, 10 nM IMPα/β, increasing concentrations of compound): able to block association
IC50 [2]: 1600 nM
NS5 binding to IMPβ1 alone [3]: largely unaffected
effect on cell viability (XTT) [4]: no effect on cell viability
EC50, DENV-1 replication [5]: low EC50
EC50, DENV-3 replication [6]: low EC50
EC50 [7]: 840 nM
EC50 [8]: 2600 nM
EC50 [9]: 2100 nM
EC50 [10]: 810 nM
CC50 at 48 h [11]: > 13000 nM
average plasma viral titre lower than untreated group, 3 days p.i. ([12]; BID treatment group): 65%
average plasma viral titre 3 days p.i. ([12]; QD treatment group): small reduction
protection (mice recovered from the infectious challenge) ([12]; once daily (QD) for 5 days): 20%
protection (mice recovered from the infectious challenge) ([12]; twice daily (BID) for 5 days): 70%
reduction in infectious virus produced (WNVKUN) [13]: 89%
toxicity profile in cancer treatment [14]: favourable toxicity profiles
